PubChem BioAssay AID248 (DTP/NCI, 2004)
Values joined by “and” are separate entries in the source; they are usually repeats but may differ in a detail not shown here. Equal values may be shown once. Toxic doses and inconclusive results are not listed. Rule as the data show it: active = T/C of 150% or more; inactive = T/C below 125%.

Tested on: L1210 leukemia ip in BDF1 mice, survival T/C
Test: NCI In Vivo Anticancer Drug Screen. Data for tumor model L1210 Leukemia (intraperitoneal) in B6D2F1 (BDF1) mice
Conditions: endpoint: mean survival time, higher = longer survival
Method in brief: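 Tumor cells were implanted, animals were treated, and survival was followed. The result divides the treated measurement by the vehicle-control measurement.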

[1] = dose: 100.0 mg/kg/injection, schedule: Q01DX009 (ip), vehicle: Klucel (hydroxypropylcellulose) (HPC)
[2] = dose: 200.0 mg/kg/injection, schedule: Q01DX009 (ip), vehicle: Klucel (hydroxypropylcellulose) (HPC)
[3] = dose: 400.0 mg/kg/injection, schedule: Q01DX009 (ip), vehicle: Klucel (hydroxypropylcellulose) (HPC)
[4] = dose: 100.0 mg/kg/injection, schedule: Q01DX001 (ip), vehicle: saline
[5] = dose: 200.0 mg/kg/injection, schedule: Q01DX001 (ip), vehicle: saline
[6] = dose: 400.0 mg/kg/injection, schedule: Q01DX001 (ip), vehicle: saline
[7] = dose: 100.0 mg/kg/injection, schedule: Q04DX003 (ip), vehicle: Klucel (hydroxypropylcellulose) (HPC)
[8] = dose: 200.0 mg/kg/injection, schedule: Q04DX003 (ip), vehicle: Klucel (hydroxypropylcellulose) (HPC)
[9] = dose: 400.0 mg/kg/injection, schedule: Q04DX003 (ip), vehicle: Klucel (hydroxypropylcellulose) (HPC)
[10] = dose: 100.0 mg/kg/injection, schedule: Q04DX002 (ip), vehicle: Klucel (hydroxypropylcellulose) (HPC)
[11] = dose: 200.0 mg/kg/injection, schedule: Q04DX002 (ip), vehicle: Klucel (hydroxypropylcellulose) (HPC)
[12] = dose: 400.0 mg/kg/injection, schedule: Q04DX002 (ip), vehicle: Klucel (hydroxypropylcellulose) (HPC)
[13] = dose: 100.0 mg/kg/injection, schedule: Q01DX001 (ip), vehicle: Klucel (hydroxypropylcellulose) (HPC)
[14] = dose: 200.0 mg/kg/injection, schedule: Q01DX001 (ip), vehicle: Klucel (hydroxypropylcellulose) (HPC)
[15] = dose: 400.0 mg/kg/injection, schedule: Q01DX001 (ip), vehicle: Klucel (hydroxypropylcellulose) (HPC)
[16] = dose: 50.0 mg/kg/injection, schedule: Q01DX009 (ip), vehicle: saline
[17] = dose: 100.0 mg/kg/injection, schedule: Q01DX009 (ip), vehicle: saline
[18] = dose: 100.0 mg/kg/injection, schedule: Q04DX003 (ip), vehicle: saline
[19] = dose: 200.0 mg/kg/injection, schedule: Q04DX003 (ip), vehicle: saline

Measured: T/C

C[C@]1(O)CC[C@H]2[C@@H]3CCC4=CC(=O)CC[C@]4(C)[C@@]3(F)C(=O)C[C@@]21C
inactive: [1] 101 % of control | dose: 100.0 mg/kg/injection, schedule: Q04DX003 (ip), vehicle: other 92 % of control | [2] 101 % of control | dose: 200.0 mg/kg/injection, schedule: Q04DX003 (ip), vehicle: other 108 % of control | [3] 95 % of control | dose: 400.0 mg/kg/injection, schedule: Q04DX003 (ip), vehicle: other 94 % of control

NC(N)=NS(=O)(=O)c1ccc(C(N)=NC2CCCCC2)cc1
inactive: [4] 96 % of control | [5] 96 % of control | [6] 90 % of control

Cc1cc2c(c(NC(=O)NCCCl)c1C)CCCC2
inactive: [1] 92 % of control | [7] 105 % of control | [2] 100 % of control | [8] 96 % of control | [3] 91 % of control | [9] 103 % of control

COC(=O)/C=C(/Oc1cccc([N+](=O)[O-])c1)C(=O)OC
inactive: dose: 75.0 mg/kg/injection, schedule: Q04DX003 (ip), vehicle: saline 105 % of control | dose: 150.0 mg/kg/injection, schedule: Q04DX003 (ip), vehicle: saline 96 % of control | dose: 300.0 mg/kg/injection, schedule: Q04DX003 (ip), vehicle: saline 98 % of control

CCCCCCCCCN=C(N)CSSCC(N)=NCCCCCCCCC
inactive: dose: 1.0 mg/kg/injection, schedule: Q01DX009 (ip), vehicle: Klucel (hydroxypropylcellulose) (HPC) 109 % of control | dose: 1.0 mg/kg/injection, schedule: Q04DX002 (ip), vehicle: Klucel (hydroxypropylcellulose) (HPC) 101 % of control | dose: 2.0 mg/kg/injection, schedule: Q01DX009 (ip), vehicle: Klucel (hydroxypropylcellulose) (HPC) 111 % of control | dose: 2.0 mg/kg/injection, schedule: Q04DX002 (ip), vehicle: Klucel (hydroxypropylcellulose) (HPC) 116 % of control | dose: 4.0 mg/kg/injection, schedule: Q01DX009 (ip), vehicle: Klucel (hydroxypropylcellulose) (HPC) 109 % of control | dose: 4.0 mg/kg/injection, schedule: Q04DX002 (ip), vehicle: Klucel (hydroxypropylcellulose) (HPC) 116 % of control

CC(C)=NOS(=O)(=O)c1c(C)cc(C)cc1C
inactive: dose: 50.0 mg/kg/injection, schedule: Q04DX002 (ip), vehicle: Klucel (hydroxypropylcellulose) (HPC) 98 % of control | [1] 87 % of control | [10] 98 % of control and 89 % of control | [2] 97 % of control | [11] 105 % of control | [3] 97 % of control | [12] 92 % of control

NNc1cc(S(=O)(=O)O)cc2cc(S(=O)(=O)O)cc(O)c12
inactive: dose: 75.0 mg/kg/injection, schedule: Q01DX009 (ip), vehicle: Klucel (hydroxypropylcellulose) (HPC) 107 % of control | dose: 150.0 mg/kg/injection, schedule: Q01DX009 (ip), vehicle: Klucel (hydroxypropylcellulose) (HPC) 107 % of control | dose: 300.0 mg/kg/injection, schedule: Q01DX009 (ip), vehicle: Klucel (hydroxypropylcellulose) (HPC) 104 % of control

NNc1ccccc1
inactive: [4] 105 % of control | [5] 111 % of control

O=C(N/N=C/C=C\c1ccccc1)C(=O)N/N=C/C=C/c1ccccc1
inactive: [7] 94 % of control | [8] 89 % of control | [9] 94 % of control

CC1(C)CCCC2(C)C(O)C3CCC2C31 (centres undefined)
inactive: [13] 96 % of control | [14] 91 % of control | [15] 90 % of control

C#CCCN1CCC2(CC1)C(=O)NCN2c1ccccc1
inactive: [13] 91 % of control | [14] 94 % of control | [15] 91 % of control

C[n+]1c(/C=C/c2ccc(O)c3ccccc23)ccc2ccccc21
inactive: dose: 75.0 mg/kg/injection, schedule: Q01DX001 (ip), vehicle: carboxymethylcellulose (CMC) 92 % of control | dose: 150.0 mg/kg/injection, schedule: Q01DX001 (ip), vehicle: carboxymethylcellulose (CMC) 97 % of control

CCCCC(=O)N(CCCC)CCCC
inactive: dose: 100.0 mg/kg/injection, schedule: Q04DX002 (ip), vehicle: saline 107 % of control | dose: 200.0 mg/kg/injection, schedule: Q04DX002 (ip), vehicle: saline 114 % of control | dose: 400.0 mg/kg/injection, schedule: Q04DX002 (ip), vehicle: saline 93 % of control

CN(Cc1cccc(Cl)c1)C(=O)Nc1ccccc1Cl
inactive: [10] 104 % of control | [11] 104 % of control | [12] 104 % of control

c1ccc2c(c1)ccc1c2ccc2cccc[n+]21
inactive: dose: 1.25 mg/kg/injection, schedule: Q01DX001 (ip), vehicle: saline 97 % of control | dose: 2.5 mg/kg/injection, schedule: Q01DX001 (ip), vehicle: saline 97 % of control | dose: 5.0 mg/kg/injection, schedule: Q01DX001 (ip), vehicle: saline 103 % of control | dose: 5.0 mg/kg/injection, schedule: Q01DX015 (ip), vehicle: saline 103 % of control | dose: 10.0 mg/kg/injection, schedule: Q01DX001 (ip), vehicle: saline 107 % of control

CCCCC(CCN(C)C)(CNC(=O)CN(CC)CC)c1cccc2ccccc12 (centres undefined)
inactive: dose: 25.0 mg/kg/injection, schedule: Q01DX009 (ip), vehicle: saline 91 % of control | [16] 91 % of control | [17] 90 % of control | [18] 100 % of control

CCOC(=O)C1CC(C)c2[nH]c3ccccc3c21 (centres undefined)
inactive: [10] 110 % of control | [11] 107 % of control | [12] 89 % of control

Cc1cccc2c1C1c3ccccc3C(=O)CC1CC2=O (centres undefined)
inactive: [7] 98 % of control | [8] 97 % of control | [9] 93 % of control

COCCN1CCC(CN2c3ccccc3Sc3ccccc32)C1 (centres undefined)
inactive: [18] 111 % of control

CCCCOB(OCCCC)OCCCC
inactive: dose: 50.0 mg/kg/injection, schedule: Q01DX001 (ip), vehicle: saline 104 % of control | [4] 95 % of control | [5] 90 % of control | [6] 106 % of control

CNCCN1CCCC1
inactive: [16] 95 % of control | [17] 103 % of control | [18] 102 % of control | dose: 200.0 mg/kg/injection, schedule: Q01DX009 (ip), vehicle: saline 101 % of control | [19] 109 % of control

C=CCc1ccc(OCC(N)=O)c(OC)c1
inactive: dose: 100.0 mg/kg/injection, schedule: Q04DX003 (ip), vehicle: saline with Tween-80 107 % of control | dose: 200.0 mg/kg/injection, schedule: Q04DX003 (ip), vehicle: saline with Tween-80 107 % of control | dose: 400.0 mg/kg/injection, schedule: Q04DX003 (ip), vehicle: saline with Tween-80 109 % of control

CN1CN(C2CCCCC2)CSC1=S
inactive: dose: 100.0 mg/kg/injection, schedule: Q01DX001 (ip), vehicle: acetone 95 % of control | dose: 100.0 mg/kg/injection, schedule: Q04DX003 (ip), vehicle: acetone 101 % of control | [18] 101 % of control | dose: 200.0 mg/kg/injection, schedule: Q01DX001 (ip), vehicle: acetone 92 % of control | dose: 200.0 mg/kg/injection, schedule: Q04DX003 (ip), vehicle: acetone 106 % of control | [19] 102 % of control | dose: 400.0 mg/kg/injection, schedule: Q01DX001 (ip), vehicle: acetone 100 % of control | dose: 400.0 mg/kg/injection, schedule: Q04DX003 (ip), vehicle: acetone 94 % of control | dose: 400.0 mg/kg/injection, schedule: Q04DX003 (ip), vehicle: saline 98 % of control

COC(=O)c1cc(NC(=O)Nc2ccc(F)c([N+](=O)[O-])c2)cc(C(=O)OC)c1
inactive: [1] 95 % of control | [2] 93 % of control | [3] 96 % of control

CC(=O)OCC(COC(C)=O)=C1N=C(c2ccccc2)OC1=O
inactive: [1] 103 % of control | [7] 95 % of control | [2] 106 % of control | [8] 95 % of control | [3] 107 % of control | [9] 97 % of control

CCCCN1C(=O)c2c(Cl)c(Cl)c(Cl)c(Cl)c2C1=O
inactive: dose: 200.0 mg/kg/injection, schedule: Q04DX002 (ip), vehicle: other 94 % of control | dose: 400.0 mg/kg/injection, schedule: Q04DX002 (ip), vehicle: other 92 % of control

COC(=O)c1nc(Cl)nc(SC)c1Cl
inactive: [7] 96 % of control | [8] 110 % of control | [9] 96 % of control
